Patent US20100324081A1, “PREVENTIVE, INHIBITOR OR REMEDY FOR CEREBRAL ANEURYSM COMPRISING IBUDILAST AS AN ACTIVE INGREDIENT” (Kyorin Pharmaceutical Co., Ltd., priority 2007, published 2010)

Assays:
[1] = system: rat cerebral aneurysm model; experiment: Cerebral aneurysm formation-inhibitory effect on rat cerebral aneurysm model (vascular corrosion cast staging); type: in vivo, Sprague-Dawley rats; conditions: for Analysis χ^2 Test (P vs control group) / Number of cases at Stage 1 (irregularity of vascular endothelia at the branched portion) / Number of cases at Stage 2 (slight outward projection) / Number of cases at Stage 0 (no irregularity, no outward projection): 12 weeks, 15 cases
Procedure: Cerebral aneurysm models of rats were prepared, Ibudilast was administered to these animals at a dose of […] through the oral route.
In this experiment, 7-week-old Sprague-Dawley rats were used and the posterior nenal arteries at both sides of test animal were ligated and the right side common carotid artery of each test animal was likewise ligated (the preparation of a cerebral aneurysm model of rat: see Non-Patent Document 7 specified above). After one week from the foregoing treatments, the administration of a 1% physiological saline was initiated. Then, the ovaries of each test animal on the both sides were excised after 4 weeks from the initial operation. Starting from the day subsequent to the excision, a 5% gum Arabic solution (control group) and Ibudilast were orally administered to these test animals through the use of an oral probe (sound).
The numbers of cases examined herein were as follows:
Control Group (the animal group administered at a dose of 0 mg/kg/day): 20 cases;
Ibudilast (30 mg/kg/day)-Administered Group: 15 cases; and
Ibudilast (60 mg/kg/day)-Administered Group: 15 cases.
After 12 weeks from the initiation of the administration, the rats were sacrificed, and a resin (curable resin: Baston No. 17 Plastic (manufactured and sold by Polyscience Inc.)) was injected into the blood vessels of the animals to thus form a vascular corrosion cast. Then, each branched portion of the left anterior cerebral artery-olfactory artery present in the vascular corrosion cast was examined using an electron microscope. The evaluation of the results obtained was carried out under the blind conditions to thus estimate the progress of the formation of any cerebral aneurysm according to the following criteria:
Evaluation Criteria of Vascular Corrosion Cast:
Stage 0: There was not observed any […] irregularity and any outward projection;
Stage 1: There was observed irregularity of vascular endothelia at the branched portion;
Stage 2: There was observed a slight and outward projection; and
Stage 3: There was observed a substantial and outward projection or a projection which reaches even to the apex of the branched portion.

[2] = system: female rat animal model used for generating cerebral aneurysm; conditions: hormone substitution therapy, estrogen-deficient female rat model; Non-Patent Document 7; cited from earlier work

Compound | Analysis χ^2 Test (P vs control group) ([1]; Ibudilast 30 mg/kg/day oral) | Number of cases at Stage 1 (irregularity of vascular endothelia at the branched portion) ([1]; Ibudilast 30 mg/kg/day oral) | Number of cases at Stage 2 (slight outward projection) ([1]; Ibudilast 30 mg/kg/day oral) | Number of cases at Stage 0 (no irregularity, no outward projection) ([1]; Ibudilast 30 mg/kg/day oral, vascular corrosion cast, left anterior cerebral artery-olfactory artery branch) | Analysis χ^2 Test (P vs control group) ([1]; Ibudilast 60 mg/kg/day oral) | Number of cases at Stage 0 (no irregularity, no outward projection) ([1]; Ibudilast 60 mg/kg/day oral) | Number of cases at Stage 1 (irregularity of vascular endothelia at the branched portion) ([1]; Ibudilast 60 mg/kg/day oral) | Number of cases at Stage 2 (slight outward projection) ([1]; Ibudilast 60 mg/kg/day oral) | Effect on cerebral aneurysm formation (overall, in words) ([1]; cerebral aneurysm model of rat, oral administration) | Effect on cerebral aneurysm formation (in words) [2]
CC(C)C(=O)c1c(C(C)C)nn2ccccc12 [Ibudilast] | P < 0.005 | 7 | 3 | 4 | P < 0.005 | 4 | 6 | 5 | excellent effect of cerebral aneurysm formation-preventive or suppression | 
C[C@]12CC[C@@H]3c4ccc(O)cc4CC[C@H]3[C@@H]1CC[C@@H]2O [17β-estradiol] |  |  |  |  |  |  |  |  |  | the formation of any cerebral aneurysm is suppressed
